The values that follow come from article PMC7065771, “Dietary supplementation of recombinant antimicrobial peptide Epinephelus lanceolatus piscidin improves growth performance and immune response in Gallus gallus domesticus” (PLoS ONE, 2020).

The test system of assay [1] is Pseudomonas aeruginosa (ATCC 19660). Put plainly: Inhibition zone (disk diffusion) assay. The settings on record: then disk diffusion 16 h at 37°C. It is filed as cell-based. On the procedure:
(§1) All assays were performed in triplicate.
(§2) The antimicrobial activity of rEP from flask cultures was evaluated by determining its ability to prevent growth of Gram-positive and Gram-negative bacteria with a disk diffusion assay. […] The most susceptible pathogens were R. anatipestifer (CFC27) and R. anatipestifer (CFC437) (Table 3a). Next, we investigated the thermostability of flask-fermented rEP with regard to its toxicity toward S. aureus (BCRC 10780), E. coli (BCRC 10675) and P. aeruginosa (ATCC 19660). Empty vector with no insert in P. pastoris was used as a control. Thermostability was measured by disk diffusion assay after cultures were incubated for 5 min at 40, 60, 80, or 100°C (Table 3b).

Assay [2] relates to Riemerella anatipestifer (CFC27). Put plainly: Inhibition zone (disk diffusion) assay. It is filed as cell-based. The settings on record: disk paper 16 h at 37°C, shake-flask supernatant 120 h after induction. On the procedure: as §1, §2
On the technique in general: In agar diffusion tests the substance spreads into inoculated agar from a disc or well.

Assay [3] relates to Staphylococcus aureus (BCRC 10780). Put plainly: Inhibition zone (disk diffusion) assay. It is filed as cell-based. The settings on record: then disk diffusion 16 h at 37°C. On the procedure:
as §1, §2

Assay [4] has as its system K. oxytoca. Put plainly: Inhibition zone assay, flask culture supernatant. It is filed as cell-based, Klebsiella oxytoca. The settings on record: flask culture supernatant after 5 days of methanol induction. On the procedure: as §1
Fig 4 Antimicrobial activity of rEP produced in P. pastoris by flask and fermenter methods. (a) rEP concentration in the yeast culture supernatant before and after induction with methanol for 24 h to 120 h in flask culture. […] The marker “-” represents Gram-negative; “+” represents Gram-positive. (b) The antibacterial activity of rEP produced by the fermenter method. Yeast were induced with methanol from 24 h to 120 h in a fermenter.

[5] abbreviates: thermostability: flask supernatant incubated 5 min at 40°C.
Setting [6] is: thermostability: flask supernatant incubated 5 min at 60°C.

As to “EFFIFHIIKGLFHAGRMIHGLVNRRRHRHHHHHH [rEP, recombinant His-tagged Epinephelus lanceolatus piscidin from Pichia pastoris, used as crude culture supernatant or spray-dried powder]”, the “Inhibition zone diameter after heat treatment” value in assay [1] (setting [5]) is given as 10.1±0.3 mm; in assay [1] (setting [6]), 9.5±0.2 mm; in assay [3] (setting [5]), 10.6±1.5 mm; in assay [3] (setting [6]), 9.1±0.7 mm; in assay [3] (thermostability: flask supernatant incubated 5 min at 80°C), 9.3±0.5 mm; in assay [3] (thermostability: flask supernatant incubated 5 min at 100°C), 9.3±0.5 mm. The Inhibition zone diameter in assay [2] (first of two values printed) is reported as 12 mm; in assay [2] (second of two values printed), 14 mm. The Inhibition zone result in assay [4] is recorded as “large inhibition zones”.
